{"source": "patent US11426371B2", "about": "“Compositions and methods for treating cancer” (University of Virginia Patent Foundation, priority 2017, dated 2022)", "key": {"[1]": {"test_system": "primary AML patient samples", "assay": "Apoptosis in primary AML patient cells", "assay_type": "cell-based, human", "details": "48 hours, nutrient- and growth factor-rich culture", "description": "Multiple primary patient (Pt) AML cells were treated with various doses of SACLAC and assayed for apoptosis at 48 hours and colony formation over several days. […] The ordinate represents Colonies (as % of control) and the abscissa represents the concentration of SACLAC (μM). Unt=untreated; DMSO=dimethyl sulfoxide vehicle control.\nFurther, effects on patient samples strongly support the potential for clinical relevance of SACLAC. […] Based on the data presented here, we propose that use of SACLAC for treatment of AML is novel and clinically promising."}, "[2]": {"assay": "Solubility in vehicles for i.v. drug delivery", "assay_type": "physicochemical"}, "[3]": {"test_system": "Human AML cell lines (n = 30)", "assay": "Cell viability, average over the panel of AML cell lines", "assay_type": "cell-based", "details": "mean over 30 human AML cell lines", "description": "Representative human AML cell lines (FIG. 2A; upper and lower panels) HL60/VCR and (FIG. 2B; upper and lower panels) OCI-AML2 were treated with SACLAC for 24 and 48 hours. Viability was assessed by MTS assay at 24 and 48 hours and apoptosis was assessed by flow cytometry at 48 hours. Upper panels represent % viability and lower panels indicate % apoptosis.\nTwo representative human-derived AML cell lines, HL60/VCR and OCI-AML2, are shown. These studies have been expanded to a large panel of additional human AML cell lines (n=30, Table 1)."}, "[4]": {"test_system": "hAML cell lines", "assay": "Time course studies of apoptosis and mitochondrial membrane depolarization", "assay_type": "cell-based, human"}, "[5]": {"target": "T1, acid ceramidase (AC) (Homo sapiens, UniProt Q13510)", "T1 sequence (Q13510 143-395 limits assumed)": "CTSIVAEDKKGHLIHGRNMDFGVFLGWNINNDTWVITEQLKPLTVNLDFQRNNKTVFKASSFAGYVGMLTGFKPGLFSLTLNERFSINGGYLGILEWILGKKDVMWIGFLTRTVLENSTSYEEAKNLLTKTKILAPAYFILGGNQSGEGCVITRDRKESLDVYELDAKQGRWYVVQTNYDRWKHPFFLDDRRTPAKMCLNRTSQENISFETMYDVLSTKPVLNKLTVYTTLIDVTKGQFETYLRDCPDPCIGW", "T1 sequence (Q13510 22-142 limits assumed)": "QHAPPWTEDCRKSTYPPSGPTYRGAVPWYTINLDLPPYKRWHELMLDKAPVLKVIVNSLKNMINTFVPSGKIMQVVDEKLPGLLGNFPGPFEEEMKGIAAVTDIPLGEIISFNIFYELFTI", "assay": "AC activity in AML cell lines, fluorogenic AC substrate", "assay_type": "cell-based", "set-up": "endogenous in cells; host or cells: HL60/VCR, OCI-AML2, THP-1 human AML cell lines", "description": "Ceramide analog SACLAC (FIG. 1A) inhibits AC activity in representative human AML cell lines (FIG. 1B) HL60/VCR and (FIG. 1C) OCI-AML2 after 24 hours. Activity was assessed by incubation with a fluorogenic AC substrate. Published AC inhibitor LCL204 is included for comparison.\nThe ordinate represents AC Activity as percent of control and the abscissa represents SACLAC or LCL204 concentration."}, "[6]": {"assay": "SACLAC serum/blood levels after i.p. or i.v. administration", "assay_type": "in vivo, mouse", "description": "FIG. 7 graphically depicts SACLAC levels in mouse blood following administration intraperitoneally (i.p.) at 40 mg/kg body weight or intravenously (i.v.) at 5 mg/kg body weight. The ordinate represents Concentration (nM) and the abscissa Time (hours). DMSO (dimethyl sulfoxide) and β-HPCD (2-hydroxypropyl […]) represent the vehicle for SACLAC delivery.\nSerum concentrations of SACLAC were also determined following administration. (see FIG. 7). […] SACLAC was dissolved in dimethyl sulfoxide (DMSO) or 2-hydroxypropyl-β-cyclodextrin (β-HPCD). Serum levels were determined following injection of free SACLAC (i.p.—in DMSO at 40 mg/kg; or i.v.—5 mg/kg in β-HPCD). […] They also show our ability to generate and characterize in vitro functionality by modifying delivery and delivery systems, monitor PK and evolve our approaches based on experimental results in order to maximize in vivo efficacy."}}, "note": "Entries after “also recorded” stand apart in the source; their conditions may differ. Where two headings read alike, the source gives them in different places.", "data": [{"smiles": "CCCCCCCCCCCCCCC[C@@H](O)[C@H](CO)NC(=O)CCl", "note": "[SACLAC, 2-chloro-N-((2S,3R)-1,3-dihydroxyoctadecan-2-yl)acetamide]", "values": [{"measurement": "apoptosis", "setting": "[1]", "result": "effectively induced apoptosis"}, {"measurement": "solubility in vehicles for i.v. drug delivery", "setting": "[2]", "result": "low solubility"}, {"measurement": "EC50", "setting": "[3]; 24 h, read-out: EC50 24 h, Average", "result": 2300, "unit": "nM"}, {"measurement": "EC50", "setting": "[3]; 48 h, read-out: EC50 48 h, Average", "result": 1900, "unit": "nM"}, {"measurement": "mitochondrial membrane potential, time course", "setting": "[4]; concurrent with apoptosis induction", "result": "mitochondrial membrane depolarization"}, {"measurement": "apoptosis, time course", "setting": "[4]; time course studies", "result": "apoptosis induction"}, {"measurement": "AC activity", "setting": "[5]; HL60/VCR and OCI-AML2, 24 hours", "result": "decreased AC activity at all tested doses; also recorded: nearly complete inhibition at nanomolar concentrations"}, {"measurement": "AC activity, compared with LCL204", "setting": "[5]; HL60/VCR, THP-1 and OCI-AML2 cells, 24 h", "result": "inhibited AC activity more potently than LCL204"}, {"measurement": "uptake following i.p. injection", "setting": "[6]; i.p. injection", "result": "suboptimal uptake"}, {"measurement": "serum levels", "setting": "[6]; i.p., 40 mg/kg in DMSO", "result": "low serum levels"}, {"measurement": "serum levels", "setting": "[6]; i.v., 5 mg/kg in β-HPCD, compared with i.p.", "result": "great improvement"}]}]}
